Test results as given in the NIST ThermoML archive (doi:10.1021/acs.jced.8b01097).
Numbers after ± are expanded uncertainties.

Test: xn = mol fraction of the nth substance listed
Settings: 85 kPa, Liquid; for viscosity: Concentric cylinders viscometry; for mass density: Vibrating tube method

NCCCO [3-amino-1-propanol] + CCC(C)O
Settings	mass density [kg/m3]	viscosity [mPa·s]
293.15 K, x2 = 0	987.8 ± 1.3	37.33 ± 2.3
293.15 K, x2 = 0.081	971.2 ± 1.2	30.36 ± 1.8
293.15 K, x2 = 0.1607	955.5 ± 1.2	25.31 ± 1.5
293.15 K, x2 = 0.2395	940.2 ± 1.1	20.96 ± 1.3
293.15 K, x2 = 0.3499	919.3 ± 1.1	15.85 ± 0.96
293.15 K, x2 = 0.4394	902.8 ± 1.1	12.63 ± 0.76
293.15 K, x2 = 0.5602	881 ± 1.1	9.361 ± 0.57
293.15 K, x2 = 0.658	863.9 ± 1.1	7.574 ± 0.46
293.15 K, x2 = 0.7408	849.7 ± 1	6.103 ± 0.37
293.15 K, x2 = 0.8511	830.9 ± 1	4.795 ± 0.29
293.15 K, x2 = 0.9396	816.2 ± 1	4.079 ± 0.25
298.15 K, x2 = 0	984.3 ± 1.2	28.59 ± 1.7
298.15 K, x2 = 0.081	967.8 ± 1.2	23.43 ± 1.4
298.15 K, x2 = 0.1607	951.9 ± 1.2	19.73 ± 1.2
298.15 K, x2 = 0.2395	936.6 ± 1.1	16.46 ± 1
298.15 K, x2 = 0.3499	915.6 ± 1.1	12.59 ± 0.76
298.15 K, x2 = 0.4394	899 ± 1.1	10.15 ± 0.61
298.15 K, x2 = 0.5602	877.2 ± 1.1	7.634 ± 0.46
298.15 K, x2 = 0.658	860 ± 1.1	6.253 ± 0.38
298.15 K, x2 = 0.7408	845.7 ± 1	5.076 ± 0.31
298.15 K, x2 = 0.8511	827 ± 1	4.016 ± 0.24
298.15 K, x2 = 0.9396	812.2 ± 1	3.403 ± 0.2
303.15 K, x2 = 0	980.3 ± 1.2	22.31 ± 1.4
303.15 K, x2 = 0.081	964 ± 1.2	18.39 ± 1.1
303.15 K, x2 = 0.1607	948.1 ± 1.2	15.6 ± 0.95
303.15 K, x2 = 0.2395	932.7 ± 1.1	13.11 ± 0.8
303.15 K, x2 = 0.3499	911.6 ± 1.1	10.15 ± 0.62
303.15 K, x2 = 0.4394	895 ± 1.1	8.261 ± 0.5
303.15 K, x2 = 0.5602	873.2 ± 1.1	6.309 ± 0.38
303.15 K, x2 = 0.658	856 ± 1.1	5.213 ± 0.32
303.15 K, x2 = 0.7408	841.7 ± 1	4.261 ± 0.26
303.15 K, x2 = 0.8511	823 ± 1	3.377 ± 0.2
303.15 K, x2 = 0.9396	808.2 ± 1	2.853 ± 0.17
308.15 K, x2 = 0	976.2 ± 1.2	17.67 ± 1.1
308.15 K, x2 = 0.081	959.9 ± 1.2	14.66 ± 0.89
308.15 K, x2 = 0.1607	944.2 ± 1.2	12.51 ± 0.76
308.15 K, x2 = 0.2395	928.7 ± 1.1	10.58 ± 0.64
308.15 K, x2 = 0.3499	907.6 ± 1.1	8.29 ± 0.5
308.15 K, x2 = 0.4394	890.9 ± 1.1	6.808 ± 0.41
308.15 K, x2 = 0.5602	869 ± 1.1	5.251 ± 0.32
308.15 K, x2 = 0.658	851.9 ± 1.1	4.371 ± 0.26
308.15 K, x2 = 0.7408	837.6 ± 1	3.604 ± 0.22
308.15 K, x2 = 0.8511	818.9 ± 1	2.866 ± 0.17
308.15 K, x2 = 0.9396	803.9 ± 1	2.411 ± 0.15
313.15 K, x2 = 0	972.3 ± 1.2	14.21 ± 0.86
313.15 K, x2 = 0.081	956.1 ± 1.2	11.85 ± 0.72
313.15 K, x2 = 0.1607	940.2 ± 1.2	10.16 ± 0.62
313.15 K, x2 = 0.2395	924.9 ± 1.1	8.658 ± 0.53
313.15 K, x2 = 0.3499	903.7 ± 1.1	6.856 ± 0.42
313.15 K, x2 = 0.4394	886.9 ± 1.1	5.676 ± 0.34
313.15 K, x2 = 0.5602	865 ± 1.1	4.422 ± 0.27
313.15 K, x2 = 0.658	847.8 ± 1.1	3.715 ± 0.23
313.15 K, x2 = 0.7408	833.5 ± 1	3.07 ± 0.19
313.15 K, x2 = 0.8511	814.7 ± 1	2.446 ± 0.15
313.15 K, x2 = 0.9396	799.6 ± 1	2.053 ± 0.12
318.15 K, x2 = 0	968.5 ± 1.2	11.58 ± 0.7
318.15 K, x2 = 0.081	952.4 ± 1.2	9.715 ± 0.59
318.15 K, x2 = 0.1607	936.6 ± 1.2	8.364 ± 0.51
318.15 K, x2 = 0.2395	921.1 ± 1.1	7.173 ± 0.44
318.15 K, x2 = 0.3499	899.8 ± 1.1	5.733 ± 0.35
318.15 K, x2 = 0.4394	882.9 ± 1.1	4.781 ± 0.29
318.15 K, x2 = 0.5602	860.9 ± 1.1	3.758 ± 0.23
318.15 K, x2 = 0.658	843.6 ± 1.1	3.174 ± 0.19
318.15 K, x2 = 0.7408	829.3 ± 1	2.634 ± 0.16
318.15 K, x2 = 0.8511	810.4 ± 1	2.103 ± 0.13
318.15 K, x2 = 0.9396	795.2 ± 1	1.76 ± 0.11
323.15 K, x2 = 0	964.9 ± 1.2	9.546 ± 0.58
323.15 K, x2 = 0.081	948.9 ± 1.2	8.057 ± 0.49
323.15 K, x2 = 0.1607	933 ± 1.2	6.971 ± 0.42
323.15 K, x2 = 0.2395	917.5 ± 1.1	6.012 ± 0.36
323.15 K, x2 = 0.3499	896.1 ± 1.1	4.85 ± 0.29
323.15 K, x2 = 0.4394	879.2 ± 1.1	4.064 ± 0.25
323.15 K, x2 = 0.5602	857 ± 1.1	3.228 ± 0.2
323.15 K, x2 = 0.658	839.7 ± 1.1	2.731 ± 0.17
323.15 K, x2 = 0.7408	825.2 ± 1	2.275 ± 0.14
323.15 K, x2 = 0.8511	806.1 ± 1	1.82 ± 0.11
323.15 K, x2 = 0.9396	790.8 ± 1	1.519 ± 0.092
